# Experiments:
# Assay in all cases: NCI SRB growth inhibition (single dose 10 µM / five-dose)
# Type in all cases: cell-based, human
# SK-MEL-5 = settings: Homo sapiens; for inhibition at 10 µM: SK-MEL-5 (Melanoma), read-out: GI%; for GI50: SK-MEL-5, Melanoma, five-dose
# Outline: (§1)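 Test agents were dissolved in DMSO at 400-fold the top final concentration, diluted in medium with 50 µg/mL gentamicin, and tested at five concentrations.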
# LOX IMVI = settings: Homo sapiens; for inhibition at 10 µM: LOX IMVI (Melanoma), read-out: GI%; for GI50: LOX IMVI, Melanoma, five-dose
# Outline: as §1
# NCI-H23 = settings: Homo sapiens; for inhibition at 10 µM: NCI-H23 (Non-small cell lung cancer), read-out: GI%; for GI50: NCI-H23, Non-small cell lung cancer, five-dose
# Outline: as §1
# OVCAR-5 = settings: Homo sapiens; for inhibition at 10 µM: OVCAR-5 (Ovarian cancer), read-out: GI%; for GI50: OVCAR-5, Ovarian cancer, five-dose
# Outline: as §1
# COLO 205 = settings: Homo sapiens; for GI50: COLO 205, Colon cancer, five-dose
# Outline: as §1
# HCT-15 = settings: Homo sapiens; for inhibition at 10 µM: HCT-15 (Colon cancer), read-out: GI%; for GI50: HCT-15, Colon cancer, five-dose
# Outline: as §1
# MALME-3 M = settings: Homo sapiens; for inhibition at 10 µM: MALME-3 M (Melanoma), read-out: GI%; for GI50: MALME-3 M, Melanoma, five-dose
# Outline: as §1
# NCI-H226 = settings: Homo sapiens; for inhibition at 10 µM: NCI-H226 (Non-small cell lung cancer), read-out: GI%; for GI50: NCI-H226, Non-small cell lung cancer, five-dose
# Outline: as §1
# ACHN = settings: Homo sapiens; for inhibition at 10 µM: ACHN (Renal cancer), read-out: GI%; for GI50: ACHN, Renal cancer, five-dose
# Outline: as §1
# HOP-62 = settings: Homo sapiens; for GI50: HOP-62, Non-small cell lung cancer, five-dose
# Outline: as §1
# HCC-2998 = settings: Homo sapiens; for inhibition at 10 µM: HCC-2998 (Colon cancer), read-out: GI%; for GI50: HCC-2998, Colon cancer, five-dose
# Outline: as §1
# SNB-75 = settings: Homo sapiens; for inhibition at 10 µM: SNB-75 (CNS cancer), read-out: GI%; for GI50: SNB-75, CNS cancer, five-dose
# Outline: as §1
# HT29 = settings: Homo sapiens, HT-29; for inhibition at 10 µM: HT29 (Colon cancer), read-out: GI%; for GI50: HT29, Colon cancer, five-dose
# Outline: as §1
# OVCAR-3 = settings: Homo sapiens; for inhibition at 10 µM: OVCAR-3 (Ovarian cancer), read-out: GI%; for GI50: OVCAR-3, Ovarian cancer, five-dose
# Outline: as §1
# A498 = settings: Homo sapiens; for inhibition at 10 µM: A498 (Renal cancer), read-out: GI%; for GI50: A498, Renal cancer, five-dose
# Outline: as §1
# IGROV1 = settings: Homo sapiens, IGROV-1; for inhibition at 10 µM: IGROV1 (Ovarian cancer), read-out: GI%; for GI50: IGROV1, Ovarian cancer, five-dose
# Outline: as §1
# RPMI-8226 = settings: Homo sapiens; for inhibition at 10 µM: RPMI-8226 (Leukemia), read-out: GI%; for GI50: RPMI-8226, Leukemia, five-dose
# Outline: as §1
# SNB-19 = settings: Homo sapiens; for inhibition at 10 µM: SNB-19 (CNS cancer), read-out: GI%; for GI50: SNB-19, CNS cancer, five-dose
# Outline: as §1
# T-47D = settings: Homo sapiens, T47D; for GI50: T-47D, Breast cancer, five-dose
# Outline: as §1
# UACC-257 = settings: Homo sapiens; for inhibition at 10 µM: UACC-257 (Melanoma), read-out: GI%; for GI50: UACC-257, Melanoma, five-dose
# Outline: as §1
# OVCAR-4 = settings: Homo sapiens; for inhibition at 10 µM: OVCAR-4 (Ovarian cancer), read-out: GI%; for GI50: OVCAR-4, Ovarian cancer, five-dose
# Outline: as §1
# SK-MEL-2 = settings: Homo sapiens; for inhibition at 10 µM: SK-MEL-2 (Melanoma), read-out: GI%; for GI50: SK-MEL-2, Melanoma, five-dose
# Outline: as §1
# NCI-H322M = settings: Homo sapiens; for inhibition at 10 µM: NCI-H322M (Non-small cell lung cancer), read-out: GI%; for GI50: NCI-H322M, Non-small cell lung cancer, five-dose
# Outline: as §1
# HOP-92 = settings: Homo sapiens; for inhibition at 10 µM: HOP-92 (Non-small cell lung cancer), read-out: GI%
# Outline: as §1
# MOLT-4 = settings: Homo sapiens; for inhibition at 10 µM: MOLT-4 (Leukemia), read-out: GI%; for GI50: MOLT-4, Leukemia, five-dose
# Outline: as §1
# NCI/ADR-RES = settings: Homo sapiens; for inhibition at 10 µM: NCI/ADR-RES (Ovarian cancer), read-out: GI%; for GI50: NCI/ADR-RES, Ovarian cancer, five-dose
# Outline: as §1
compound,measurement,setting,value
"O=C(NN=Cc1ccccc1O)c1ccc2[nH]c(-c3ccc(Cl)cc3)nc2c1 [8o, 2-(4-Chlorophenyl)-N'-(2-hydroxybenzylidene)-1H-benzo[d]imidazole-5-carbohydrazide]",inhibition at 10 µM,SK-MEL-5,> 100%
same,GI50,SK-MEL-5,0.51 µM
same,inhibition at 10 µM,LOX IMVI,> 100%
same,GI50,LOX IMVI,0.43 µM
same,inhibition at 10 µM,NCI-H23,> 100%
same,GI50,NCI-H23,0.31 µM
same,inhibition at 10 µM,OVCAR-5,55.9%
same,GI50,OVCAR-5,2.12 µM
same,GI50,COLO 205,0.89 µM
same,inhibition at 10 µM,HCT-15,> 100%
same,GI50,HCT-15,0.2 µM
same,inhibition at 10 µM,MALME-3 M,> 100%
same,GI50,MALME-3 M,1.03 µM
same,inhibition at 10 µM,NCI-H226,88.6%
same,GI50,NCI-H226,4.33 µM
same,inhibition at 10 µM,ACHN,94.2%
same,GI50,ACHN,0.81 µM
same,GI50,HOP-62,0.84 µM
same,inhibition at 10 µM,HCC-2998,78%
same,GI50,HCC-2998,1.38 µM
same,inhibition at 10 µM,SNB-75,> 100%
same,GI50,SNB-75,0.74 µM
same,inhibition at 10 µM,HT29,> 100%
same,GI50,HT29,1.08 µM
same,inhibition at 10 µM,OVCAR-3,> 100%
same,GI50,OVCAR-3,0.19 µM
same,inhibition at 10 µM,A498,53.9%
same,GI50,A498,8.1 µM
same,inhibition at 10 µM,IGROV1,84.3%
same,GI50,IGROV1,0.95 µM
same,inhibition at 10 µM,RPMI-8226,88.2%
same,GI50,RPMI-8226,> 38.8 µM
same,inhibition at 10 µM,SNB-19,> 100%
same,GI50,SNB-19,1.12 µM
same,GI50,T-47D,1.48 µM
same,inhibition at 10 µM,UACC-257,42.4%
same,GI50,UACC-257,7.35 µM
same,inhibition at 10 µM,OVCAR-4,> 100%
same,GI50,OVCAR-4,1.25 µM
same,inhibition at 10 µM,SK-MEL-2,> 100%
same,GI50,SK-MEL-2,4.6 µM
same,inhibition at 10 µM,NCI-H322M,70.2%
same,GI50,NCI-H322M,1.38 µM
same,inhibition at 10 µM,HOP-92,> 100%
same,GI50,"HOP-92; HOP-92, Non-small cell lung cancer, five-dose",> 38.8 µM
same,inhibition at 10 µM,MOLT-4,60.8%
same,GI50,MOLT-4,0.28 µM
same,inhibition at 10 µM,NCI/ADR-RES,56.4%
same,GI50,NCI/ADR-RES,1.15 µM
"COc1cccc(C=NNC(=O)c2ccc3[nH]c(-c4ccc(Cl)cc4)nc3c2)c1 [8q, 2-(4-Chlorophenyl)-N'-(3-methoxybenzylidene)-1H-benzo[d]imidazole-5-carbohydrazide]",inhibition at 10 µM,SK-MEL-5,> 100%
same,GI50,SK-MEL-5,4.9 µM
same,inhibition at 10 µM,LOX IMVI,> 100%
same,GI50,LOX IMVI,1.82 µM
same,inhibition at 10 µM,NCI-H23,> 100%
same,GI50,NCI-H23,2.2 µM
same,inhibition at 10 µM,OVCAR-5,> 100%
same,GI50,OVCAR-5,5.35 µM
same,inhibition at 10 µM,"COLO 205; COLO 205 (Colon cancer), 10 µM, read-out: GI%",> 100%
same,GI50,COLO 205,4.02 µM
same,inhibition at 10 µM,HCT-15,63%
same,GI50,HCT-15,5.52 µM
same,inhibition at 10 µM,MALME-3 M,> 100%
same,GI50,MALME-3 M,1.54 µM
same,inhibition at 10 µM,NCI-H226,> 100%
same,GI50,NCI-H226,2.57 µM
same,inhibition at 10 µM,ACHN,> 100%
same,GI50,ACHN,4.21 µM
same,inhibition at 10 µM,"HOP-62; HOP-62 (Non-small cell lung cancer), 10 µM, read-out: GI%",> 100%
same,GI50,HOP-62,1.92 µM
same,inhibition at 10 µM,HCC-2998,79.6%
same,GI50,HCC-2998,4.42 µM
same,inhibition at 10 µM,SNB-75,> 100%
same,GI50,SNB-75,5.69 µM
same,inhibition at 10 µM,HT29,> 100%
same,GI50,HT29,2.38 µM
same,inhibition at 10 µM,OVCAR-3,> 100%
same,GI50,OVCAR-3,3.24 µM
same,inhibition at 10 µM,A498,> 100%
same,GI50,A498,15.3 µM
same,inhibition at 10 µM,IGROV1,> 100%
same,GI50,IGROV1,3.01 µM
same,inhibition at 10 µM,RPMI-8226,> 100%
same,GI50,RPMI-8226,1.47 µM
same,inhibition at 10 µM,SNB-19,> 100%
same,GI50,SNB-19,2.17 µM
same,inhibition at 10 µM,"T-47D; T-47D (Breast cancer), 10 µM, read-out: GI%",> 100%
same,GI50,T-47D,1.95 µM
same,inhibition at 10 µM,UACC-257,> 100%
same,GI50,UACC-257,4.8 µM
same,inhibition at 10 µM,OVCAR-4,> 100%
same,GI50,OVCAR-4,3.07 µM
same,inhibition at 10 µM,SK-MEL-2,> 100%
same,GI50,SK-MEL-2,3.07 µM
same,inhibition at 10 µM,NCI-H322M,> 100%
same,GI50,NCI-H322M,3.57 µM
same,inhibition at 10 µM,HOP-92,> 100%
same,inhibition at 10 µM,MOLT-4,71.6%
same,GI50,MOLT-4,5.96 µM
same,inhibition at 10 µM,NCI/ADR-RES,23%
same,GI50,NCI/ADR-RES,94.8 µM
